Where a name gives a salt, the structure may show the parent alone. Active and inactive are the calls of the source.
Columns and labels:
[1] = molecular target: 5-hydroxytryptamine receptor 2A (Mus musculus, UniProt P35363); assay type: functional, cell-based;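 also: CHO-K1 cells with tagged receptor and beta-arrestin; agonist potency measured as compound-induced activation of the receptor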
[2] = molecular target: Mu-type opioid receptor (Homo sapiens, UniProt P35372); assay type: functional, cell-based;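 also: U2OS cells with beta-arrestin recruitment to OPRM1 by beta-gal complementation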
Sequence of Mu-type opioid receptor (P35372 whole entry): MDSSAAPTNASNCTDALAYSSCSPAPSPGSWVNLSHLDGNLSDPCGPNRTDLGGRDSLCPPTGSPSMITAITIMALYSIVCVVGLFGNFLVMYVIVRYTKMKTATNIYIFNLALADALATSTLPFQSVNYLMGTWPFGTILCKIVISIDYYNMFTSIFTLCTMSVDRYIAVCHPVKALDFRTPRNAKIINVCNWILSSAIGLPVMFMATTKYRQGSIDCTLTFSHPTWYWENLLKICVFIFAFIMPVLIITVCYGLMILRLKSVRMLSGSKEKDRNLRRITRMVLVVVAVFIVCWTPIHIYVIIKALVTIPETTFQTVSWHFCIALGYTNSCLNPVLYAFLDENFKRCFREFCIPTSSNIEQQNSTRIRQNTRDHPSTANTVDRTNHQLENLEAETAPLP

[3] = Counterscreen for activators of the function of SWI/SNF related, matrix associated, actin dependent regulator of chromatin, subfamily a, member 2 (SMARCA2, BRM): Luminescence-based cell-based high throughput dose response assay to identify non-selective compounds using the VP16 reporter assay.; assay type: functional
[4] = molecular target: SWI/SNF-related matrix-associated actin-dependent regulator of chromatin subfamily A member 2 (Homo sapiens, UniProt P51531); assay: Luminescence-based cell-based high throughput dose response assay to identify activators of the function of SWI/SNF related, matrix associated, actin dependent regulator of chromatin, subfamily a, member 2 (SMARCA2, BRM).; assay type: functional
Sequence of SWI/SNF-related matrix-associated actin-dependent regulator of chromatin subfamily A member 2 (P51531 whole entry): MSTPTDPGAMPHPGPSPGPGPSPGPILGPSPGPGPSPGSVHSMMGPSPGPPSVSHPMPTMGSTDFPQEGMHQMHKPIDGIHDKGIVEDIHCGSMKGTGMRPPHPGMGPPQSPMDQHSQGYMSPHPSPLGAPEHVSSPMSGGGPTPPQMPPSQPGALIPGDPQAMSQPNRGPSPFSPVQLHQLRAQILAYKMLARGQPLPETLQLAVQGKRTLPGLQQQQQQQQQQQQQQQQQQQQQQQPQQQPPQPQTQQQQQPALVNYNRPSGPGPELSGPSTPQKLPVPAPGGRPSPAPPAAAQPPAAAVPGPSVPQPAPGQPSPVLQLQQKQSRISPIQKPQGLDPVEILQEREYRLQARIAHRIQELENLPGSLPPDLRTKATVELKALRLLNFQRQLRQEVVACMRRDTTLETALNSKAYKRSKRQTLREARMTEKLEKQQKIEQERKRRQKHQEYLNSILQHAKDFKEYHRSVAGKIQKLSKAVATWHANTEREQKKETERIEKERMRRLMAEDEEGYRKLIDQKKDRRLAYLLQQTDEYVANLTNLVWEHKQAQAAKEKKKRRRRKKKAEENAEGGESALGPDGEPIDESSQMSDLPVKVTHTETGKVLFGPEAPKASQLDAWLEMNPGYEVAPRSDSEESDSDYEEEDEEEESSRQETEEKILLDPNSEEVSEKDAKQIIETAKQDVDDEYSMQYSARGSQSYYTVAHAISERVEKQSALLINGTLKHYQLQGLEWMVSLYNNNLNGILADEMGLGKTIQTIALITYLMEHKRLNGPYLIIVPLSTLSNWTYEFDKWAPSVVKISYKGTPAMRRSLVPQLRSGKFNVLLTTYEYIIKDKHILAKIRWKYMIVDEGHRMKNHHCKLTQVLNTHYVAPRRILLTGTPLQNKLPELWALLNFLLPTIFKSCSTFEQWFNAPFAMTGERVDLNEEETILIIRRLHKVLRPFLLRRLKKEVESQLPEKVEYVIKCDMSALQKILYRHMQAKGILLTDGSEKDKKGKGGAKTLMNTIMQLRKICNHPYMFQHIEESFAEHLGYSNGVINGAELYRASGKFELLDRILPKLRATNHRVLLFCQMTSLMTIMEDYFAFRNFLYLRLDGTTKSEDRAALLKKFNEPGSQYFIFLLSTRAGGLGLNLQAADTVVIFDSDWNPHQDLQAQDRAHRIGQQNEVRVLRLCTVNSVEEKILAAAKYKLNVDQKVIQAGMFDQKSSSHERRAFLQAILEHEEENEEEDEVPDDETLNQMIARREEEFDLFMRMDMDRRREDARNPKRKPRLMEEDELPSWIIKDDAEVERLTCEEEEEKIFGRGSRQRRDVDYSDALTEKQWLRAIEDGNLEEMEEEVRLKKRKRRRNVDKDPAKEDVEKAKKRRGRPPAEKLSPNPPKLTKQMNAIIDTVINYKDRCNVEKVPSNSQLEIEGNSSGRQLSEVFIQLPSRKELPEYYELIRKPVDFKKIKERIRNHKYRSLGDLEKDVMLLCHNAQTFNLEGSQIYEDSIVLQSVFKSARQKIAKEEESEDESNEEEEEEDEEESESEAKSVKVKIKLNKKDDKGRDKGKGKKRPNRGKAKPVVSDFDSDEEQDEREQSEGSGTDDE

[5] = cells; assay type: functional, cell-based; conditions: HEK-CNG
[6] = HEK-293T viability loss after treatment – luminescence, T-cell screen hits, cytotoxicity control for TCR NF-kB inhibitor project, dose response (AID 489026); assay type: functional, cell-based;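 also: cells exposed to compound about 14 hours before the viability readout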
[7] = molecular target: Galanin receptor type 3 (Homo sapiens, UniProt O60755); assay: Fluorescence-based cell-based primary high throughput dose response assay to identify antagonists of the Galanin Receptor 3 (GalR3).; assay type: functional
Sequence of Galanin receptor type 3 (O60755 whole entry): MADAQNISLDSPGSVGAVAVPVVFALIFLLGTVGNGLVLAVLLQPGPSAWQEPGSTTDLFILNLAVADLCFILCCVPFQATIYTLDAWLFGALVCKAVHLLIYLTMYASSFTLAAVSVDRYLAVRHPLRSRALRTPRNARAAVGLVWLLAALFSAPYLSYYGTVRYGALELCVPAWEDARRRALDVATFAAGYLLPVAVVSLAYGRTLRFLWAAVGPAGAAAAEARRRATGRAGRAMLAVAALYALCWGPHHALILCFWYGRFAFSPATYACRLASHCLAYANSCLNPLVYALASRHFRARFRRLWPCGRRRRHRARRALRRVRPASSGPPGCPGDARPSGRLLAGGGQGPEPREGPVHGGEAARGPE

[8] = cells; assay type: functional, cell-based
[9] = molecular target: T1, Nuclear receptor subfamily 0 group B member 1 (Homo sapiens, UniProt P51843); assay type: functional, cell-based;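 also: HEK293T cells transfected with SF-1 and DAX-1 plus StAR promoter luciferase reporter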
T1 sequence (P51843 whole entry): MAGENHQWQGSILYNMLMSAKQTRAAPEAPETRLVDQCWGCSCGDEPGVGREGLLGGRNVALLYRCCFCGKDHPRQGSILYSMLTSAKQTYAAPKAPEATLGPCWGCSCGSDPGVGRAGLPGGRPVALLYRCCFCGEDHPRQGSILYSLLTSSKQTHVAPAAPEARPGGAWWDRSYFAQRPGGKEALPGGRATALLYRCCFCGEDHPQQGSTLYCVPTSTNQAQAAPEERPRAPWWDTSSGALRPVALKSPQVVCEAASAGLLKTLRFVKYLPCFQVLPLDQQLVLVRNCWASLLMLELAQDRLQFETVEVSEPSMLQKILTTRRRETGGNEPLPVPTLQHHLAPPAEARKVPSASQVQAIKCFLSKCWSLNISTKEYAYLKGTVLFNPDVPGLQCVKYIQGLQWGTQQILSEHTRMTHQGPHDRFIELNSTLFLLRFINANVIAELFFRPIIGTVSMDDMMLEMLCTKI

[10] = molecular target: T2, Sentrin-specific protease 8 (Homo sapiens, UniProt Q96LD8); assay type: functional
T2 sequence (Q96LD8 whole entry): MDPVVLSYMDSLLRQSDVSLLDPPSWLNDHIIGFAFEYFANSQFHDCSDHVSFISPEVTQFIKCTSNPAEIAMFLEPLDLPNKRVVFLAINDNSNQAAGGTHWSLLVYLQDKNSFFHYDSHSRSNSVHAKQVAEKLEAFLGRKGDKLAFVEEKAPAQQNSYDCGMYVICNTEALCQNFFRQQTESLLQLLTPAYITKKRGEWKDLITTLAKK

[11] = molecular target: T2, Sentrin-specific protease 8; assay type: functional; remark: listed apart in the source
[12] = molecular target: T3, Caspase-3 (Homo sapiens, UniProt P42574); assay type: functional
T3 sequence (P42574 whole entry): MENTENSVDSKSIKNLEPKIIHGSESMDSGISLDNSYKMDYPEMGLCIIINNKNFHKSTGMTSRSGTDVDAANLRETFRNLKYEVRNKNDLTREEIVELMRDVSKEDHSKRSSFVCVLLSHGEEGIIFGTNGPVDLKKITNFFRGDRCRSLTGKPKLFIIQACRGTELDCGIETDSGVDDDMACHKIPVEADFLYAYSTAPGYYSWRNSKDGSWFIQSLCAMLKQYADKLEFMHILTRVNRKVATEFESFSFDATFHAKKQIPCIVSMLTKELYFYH

[13] = molecular target: T4, Sentrin-specific protease 6 (Homo sapiens, UniProt Q9GZR1); assay type: functional;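 also: Luminescence-based dose-response confirmatory assay of SENP6 inhibition, following up an ultra-high-throughput screen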
T4 sequence (Q9GZR1 whole entry): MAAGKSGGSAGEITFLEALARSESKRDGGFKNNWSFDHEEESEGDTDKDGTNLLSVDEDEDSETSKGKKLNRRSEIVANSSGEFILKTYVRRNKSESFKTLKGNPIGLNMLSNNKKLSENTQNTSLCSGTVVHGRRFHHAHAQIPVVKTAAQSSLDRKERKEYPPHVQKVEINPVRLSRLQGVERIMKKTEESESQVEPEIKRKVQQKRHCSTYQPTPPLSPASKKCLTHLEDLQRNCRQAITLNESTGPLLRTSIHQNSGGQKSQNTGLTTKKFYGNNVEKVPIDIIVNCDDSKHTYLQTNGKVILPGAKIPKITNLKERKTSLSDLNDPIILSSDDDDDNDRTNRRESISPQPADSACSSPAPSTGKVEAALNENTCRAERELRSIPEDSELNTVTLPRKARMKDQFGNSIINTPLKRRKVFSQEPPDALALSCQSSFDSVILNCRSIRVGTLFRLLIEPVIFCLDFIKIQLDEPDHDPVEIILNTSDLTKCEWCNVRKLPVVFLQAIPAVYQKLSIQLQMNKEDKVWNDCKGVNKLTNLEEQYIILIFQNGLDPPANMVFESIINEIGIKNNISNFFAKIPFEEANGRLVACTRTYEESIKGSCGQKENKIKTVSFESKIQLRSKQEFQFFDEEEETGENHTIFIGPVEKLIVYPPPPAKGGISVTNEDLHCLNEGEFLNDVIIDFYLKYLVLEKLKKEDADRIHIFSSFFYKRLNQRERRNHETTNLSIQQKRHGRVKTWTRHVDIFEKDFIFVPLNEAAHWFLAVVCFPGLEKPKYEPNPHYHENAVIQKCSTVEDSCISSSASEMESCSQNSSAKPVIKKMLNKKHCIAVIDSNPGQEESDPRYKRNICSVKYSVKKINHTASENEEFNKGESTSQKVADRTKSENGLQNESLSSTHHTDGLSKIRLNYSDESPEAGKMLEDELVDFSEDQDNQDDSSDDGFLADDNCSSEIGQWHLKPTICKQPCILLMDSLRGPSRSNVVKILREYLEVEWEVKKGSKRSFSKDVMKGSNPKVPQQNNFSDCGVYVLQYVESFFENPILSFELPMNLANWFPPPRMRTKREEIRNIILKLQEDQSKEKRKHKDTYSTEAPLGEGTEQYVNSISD

[14] = molecular target: T5, Sentrin-specific protease 7 (Homo sapiens, UniProt Q9BQF6); assay type: functional;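 also: Luminescence-based dose-response confirmation of ultra-high-throughput screening hits, measuring inhibition of SENP7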
T5 sequence (Q9BQF6 whole entry): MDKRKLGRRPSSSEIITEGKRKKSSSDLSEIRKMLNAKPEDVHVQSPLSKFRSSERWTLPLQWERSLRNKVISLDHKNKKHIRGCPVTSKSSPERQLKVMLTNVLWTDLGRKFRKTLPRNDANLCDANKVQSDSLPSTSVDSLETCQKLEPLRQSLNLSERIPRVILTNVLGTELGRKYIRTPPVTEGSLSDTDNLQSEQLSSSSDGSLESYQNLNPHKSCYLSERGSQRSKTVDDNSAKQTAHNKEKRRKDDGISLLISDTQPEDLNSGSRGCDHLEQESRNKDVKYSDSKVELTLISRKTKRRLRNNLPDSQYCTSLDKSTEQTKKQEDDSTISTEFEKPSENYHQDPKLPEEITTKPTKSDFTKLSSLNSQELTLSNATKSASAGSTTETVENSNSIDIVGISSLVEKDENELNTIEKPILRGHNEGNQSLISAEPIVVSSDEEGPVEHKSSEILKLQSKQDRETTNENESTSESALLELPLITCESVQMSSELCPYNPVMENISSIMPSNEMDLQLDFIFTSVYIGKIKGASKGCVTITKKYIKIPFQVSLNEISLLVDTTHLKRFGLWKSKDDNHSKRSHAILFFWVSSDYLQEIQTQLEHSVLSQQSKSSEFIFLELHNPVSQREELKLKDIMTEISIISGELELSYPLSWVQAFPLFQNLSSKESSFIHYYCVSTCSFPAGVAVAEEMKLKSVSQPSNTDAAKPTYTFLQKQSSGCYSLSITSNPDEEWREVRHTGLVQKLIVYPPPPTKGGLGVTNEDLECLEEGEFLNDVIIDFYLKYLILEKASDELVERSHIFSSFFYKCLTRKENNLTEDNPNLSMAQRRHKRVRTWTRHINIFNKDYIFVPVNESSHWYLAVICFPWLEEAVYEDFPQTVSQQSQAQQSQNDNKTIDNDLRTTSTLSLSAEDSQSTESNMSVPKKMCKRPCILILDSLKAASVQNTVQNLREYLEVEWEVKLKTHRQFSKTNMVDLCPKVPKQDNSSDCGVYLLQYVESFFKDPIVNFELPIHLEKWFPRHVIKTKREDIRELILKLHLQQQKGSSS

[15] = molecular target: T3, Caspase-3; assay: Dose-response confirmation of uHTS inhibitor hits of Sentrin-Specific Protease 8 in a Caspase-3 Fluorescence assay.; assay type: functional
[16] = molecular target: T2, Sentrin-specific protease 8; assay type: functional; remark: listed apart in the source
[17] = molecular target: Mitochondrial peptide methionine sulfoxide reductase (Bos taurus, UniProt P54149); assay: Absorbance-based biochemical high throughput dose response assay for activators of Methionine sulfoxide reductase A (MsrA).; assay type: functional
Sequence of Mitochondrial peptide methionine sulfoxide reductase (P54149 whole entry): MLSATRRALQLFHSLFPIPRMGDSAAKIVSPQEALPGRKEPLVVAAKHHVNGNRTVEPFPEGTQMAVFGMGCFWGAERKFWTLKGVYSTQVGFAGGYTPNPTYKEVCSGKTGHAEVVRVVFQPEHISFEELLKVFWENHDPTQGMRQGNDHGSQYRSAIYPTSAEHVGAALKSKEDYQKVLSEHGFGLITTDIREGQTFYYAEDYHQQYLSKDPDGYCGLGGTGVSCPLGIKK

[18] = molecular target: Protein S100-A4 (Homo sapiens, UniProt P26447); assay: human S100A4 peptide interaction inhibition curves – biochemical, fluorescence polarization, cherry-picked hits, dose response (AID 687001); assay type: functional
Sequence of Protein S100-A4 (P26447 whole entry): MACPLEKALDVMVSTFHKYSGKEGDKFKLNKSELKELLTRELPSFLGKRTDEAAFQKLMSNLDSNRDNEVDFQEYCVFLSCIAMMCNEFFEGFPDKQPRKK

[19] = tested on: Vero; assay: viability loss in Vero cells – cell-based, plate reader, cherry-pick samples, cytotoxicity control, dose response (AID 687020); assay type: functional; conditions: Chlorocebus sabaeus
[20] = cells; assay type: functional, cell-based; remark: listed apart in the source
[21] = cells; assay type: functional, cell-based; remark: listed apart in the source
[22] = molecular target: Cytochrome P450 3A4 (Homo sapiens, UniProt P08684); conditions: Potency;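 also: confirmatory qHTS run detecting inhibitors and substrates of CYP3A4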
Sequence of Cytochrome P450 3A4 (P08684 whole entry): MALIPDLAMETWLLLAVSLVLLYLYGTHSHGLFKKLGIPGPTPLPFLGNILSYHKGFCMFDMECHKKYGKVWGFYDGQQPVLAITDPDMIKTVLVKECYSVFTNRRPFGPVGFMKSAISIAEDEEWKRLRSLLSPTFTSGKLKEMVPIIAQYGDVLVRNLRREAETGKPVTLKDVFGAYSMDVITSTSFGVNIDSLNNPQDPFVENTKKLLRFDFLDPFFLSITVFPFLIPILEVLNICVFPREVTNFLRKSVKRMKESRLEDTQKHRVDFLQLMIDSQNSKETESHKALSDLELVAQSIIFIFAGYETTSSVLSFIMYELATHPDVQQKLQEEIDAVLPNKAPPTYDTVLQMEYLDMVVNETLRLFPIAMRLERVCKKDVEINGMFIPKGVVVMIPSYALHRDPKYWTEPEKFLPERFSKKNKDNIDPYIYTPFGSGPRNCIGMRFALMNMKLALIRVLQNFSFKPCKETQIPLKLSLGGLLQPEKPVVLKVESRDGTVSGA

[23] = molecular target: T6, Trace amine-associated receptor 1 (Homo sapiens, UniProt Q96RJ0); assay: Counterscreen for agonists of the human trace amine associated receptor 1 (hTAAR1): Fluorescence-based cell-based high throughput dose response assay to identify hTAAR1 agonist that also desensitize TAAR1 receptor response.; assay type: functional
T6 sequence (Q96RJ0 whole entry): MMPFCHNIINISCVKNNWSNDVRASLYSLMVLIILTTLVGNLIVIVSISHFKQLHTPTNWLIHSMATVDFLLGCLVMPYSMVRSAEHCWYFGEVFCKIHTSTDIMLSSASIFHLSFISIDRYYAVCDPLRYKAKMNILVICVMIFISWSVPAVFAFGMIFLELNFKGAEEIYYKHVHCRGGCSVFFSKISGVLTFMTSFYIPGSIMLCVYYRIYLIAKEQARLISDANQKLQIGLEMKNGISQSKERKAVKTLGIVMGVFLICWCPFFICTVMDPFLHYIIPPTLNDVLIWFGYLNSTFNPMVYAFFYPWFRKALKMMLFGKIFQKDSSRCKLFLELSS

[24] = molecular target: T6, Trace amine-associated receptor 1; assay: Fluorescence-based cell-based high throughput dose response assay to identify agonists of the human trace amine associated receptor 1 (TAAR1).; assay type: functional

Sequence of 5-hydroxytryptamine receptor 2A (P35363 whole entry): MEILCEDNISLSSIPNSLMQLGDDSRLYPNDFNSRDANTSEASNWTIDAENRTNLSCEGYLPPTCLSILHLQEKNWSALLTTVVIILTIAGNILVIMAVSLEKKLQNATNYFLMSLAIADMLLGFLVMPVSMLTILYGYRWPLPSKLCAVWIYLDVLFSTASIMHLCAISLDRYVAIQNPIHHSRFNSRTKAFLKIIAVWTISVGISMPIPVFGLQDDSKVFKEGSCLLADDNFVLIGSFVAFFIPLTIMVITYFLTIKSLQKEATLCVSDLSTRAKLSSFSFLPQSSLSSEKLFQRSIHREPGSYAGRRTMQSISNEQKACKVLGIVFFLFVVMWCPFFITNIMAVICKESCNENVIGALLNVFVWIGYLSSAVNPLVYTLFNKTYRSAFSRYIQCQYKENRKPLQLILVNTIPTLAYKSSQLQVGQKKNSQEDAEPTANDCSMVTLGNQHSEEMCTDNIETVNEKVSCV

For Cc1ccc(C)c(CN2CCN(c3ncccn3)CC2)c1, the EC50 [1] was 76 µM (inactive) and the EC50 [2] was 92.4 µM (inactive).
In the case of CCCCn1c(=N)n(CC(=O)c2ccc(OC)cc2)c2ccccc21, the EC50 [3] is reported as > 91.1 µM (inactive) and the EC50 [4] is reported as > 91.1 µM (inactive).
For CCCCc1ccc(NC(=O)c2ccc(N(C)S(C)(=O)=O)cc2)cc1, the EC50 [5] was > 29.9 µM (inactive), the IC50 [6] was > 80 µM (inactive) and the IC50 [7] was 0.996 µM (active).
In the case of Cn1nnnc1SCC(=O)Nc1ccc2c(c1)OCCO2, the IC50 [8] is reported as > 67.5 µM (inactive) and the IC50 [9] is reported as > 67.5 µM (inactive).
In the case of O=C(COC(=O)c1ccc([N+](=O)[O-])s1)NNC(=O)c1ccccc1, the IC50 [10] is reported as 2.3 µM (active), the IC50 [11] is reported as 4.94 µM (active) and the IC50 [12] is reported as 6.74 µM (active). For the same molecule, the IC50 [13] was 4.34 µM (active), the IC50 [14] was 6.91 µM (active) and the IC50 [15] was 84.6 µM (inactive). For the same molecule, the IC50 [16] was 4.2 µM (active) and the EC50 [17] was 36.1 µM (inactive).
In the case of O=C(CCc1ccccc1Cl)NC1CCCN(c2ccc(C(F)(F)F)cn2)C1 (centres undefined), the AC50 [18] is reported as 9.67 µM (active).
For CC1(C(=O)NCc2cccc(C(F)(F)F)c2)CCN1Cc1cc2ccccc2o1 (centres undefined), the AC50 [19] was 20.4 µM (active).
In the case of NCC(=O)c1ccccc1 [PHENACYLAMINE HYDROCHLORIDE], the IC50 [20] is reported as > 29.9 µM (inactive), the EC50 [21] is reported as > 29.9 µM (inactive) and the AC50 [22] is reported as 6.31 µM (inconclusive). The IC50 [23] was 7.42 µM (active) and the EC50 [24] was 1.08 µM (active).

— ChEMBL document CHEMBL1201862, “PubChem BioAssay data set” (2004)
